Measurements reported in PubChem BioAssay (NCI).
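Exposure lasted 48 hours, with cells grown in 96-well plates and compounds tested at five concentrations. TGI: concentration producing complete growth inhibition.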

How the values were obtained:
Experiment in all cases: NCI-60 cell line screen, 48 h
LOX IMVI melanoma = system: LOX IMVI melanoma
NCI-H460 lung = system: NCI-H460 lung
U251 CNS = system: U251 CNS
DMS 273 small cell lung = system: DMS 273 small cell lung
NCI-H522 lung = system: NCI-H522 lung
HOP-62 NSCLC = system: HOP-62 NSCLC
RPMI-8226 leukemia = system: RPMI-8226 leukemia
SF-539 CNS = system: SF-539 CNS
LXFL 529 NSCLC = system: LXFL 529 NSCLC
OVCAR-4 ovarian = system: OVCAR-4 ovarian
KM20L2 colon = system: KM20L2 colon
SF-295 CNS = system: SF-295 CNS
SK-OV-3 ovarian = system: SK-OV-3 ovarian
UACC-257 melanoma = system: UACC-257 melanoma
HT29 colon = system: HT29 colon
DLD-1 colon = system: DLD-1 colon
SF-268 CNS = system: SF-268 CNS
K-562 leukemia = system: K-562 leukemia
HCC-2998 colon = system: HCC-2998 colon
NCI-H226 lung = system: NCI-H226 lung
SR leukemia = system: SR leukemia
CCRF-CEM leukemia = system: CCRF-CEM leukemia
786-0 renal = system: 786-0 renal
CAKI-1 renal = system: CAKI-1 renal
M19-MEL melanoma = system: M19-MEL melanoma
NCI-H23 lung = system: NCI-H23 lung
M14 melanoma = system: M14 melanoma
TK-10 renal = system: TK-10 renal
OVCAR-8 ovarian = system: OVCAR-8 ovarian
SN12C renal = system: SN12C renal
RXF 393 renal = system: RXF 393 renal
HCT-15 colon = system: HCT-15 colon
HOP-92 NSCLC = system: HOP-92 NSCLC
COLO 205 colon = system: COLO 205 colon
IGROV1 ovarian = system: IGROV1 ovarian
SNB-75 CNS = system: SNB-75 CNS
SK-MEL-28 melanoma = system: SK-MEL-28 melanoma
MALME-3M melanoma = system: MALME-3M melanoma
SNB-19 CNS = system: SNB-19 CNS
KM12 colon = system: KM12 colon
OVCAR-5 ovarian = system: OVCAR-5 ovarian
UO-31 renal = system: UO-31 renal
OVCAR-3 ovarian = system: OVCAR-3 ovarian
ACHN renal = system: ACHN renal
HL-60(TB) leukemia = system: HL-60(TB) leukemia
SK-MEL-2 melanoma = system: SK-MEL-2 melanoma
A549 NSCLC = system: A549 NSCLC
SW-620 colon = system: SW-620 colon
MOLT-4 leukemia = system: MOLT-4 leukemia

Measured: TGI

C/C(=N/O)C1CC=C(S(=O)(=O)c2ccccc2)C1 (centres undefined)
> 100 µM: all assays above
